# Columns and labels:
# [1] = biological target: Voltage-gated inwardly rectifying potassium channel KCNH2 (Homo sapiens, UniProt Q12809); experiment: Displacement of 3H-dofetilide from human ERG
# [2] = biological target: T1, Toll-like receptor 8 (Homo sapiens) (UniProt Q9NR97); experiment: Agonist activity at human TLR8 expressed in HEK293 cells after 6 hrs by NFkappaB-luciferase reporter gene assay; format: cell-based
# T1 sequence (whole entry): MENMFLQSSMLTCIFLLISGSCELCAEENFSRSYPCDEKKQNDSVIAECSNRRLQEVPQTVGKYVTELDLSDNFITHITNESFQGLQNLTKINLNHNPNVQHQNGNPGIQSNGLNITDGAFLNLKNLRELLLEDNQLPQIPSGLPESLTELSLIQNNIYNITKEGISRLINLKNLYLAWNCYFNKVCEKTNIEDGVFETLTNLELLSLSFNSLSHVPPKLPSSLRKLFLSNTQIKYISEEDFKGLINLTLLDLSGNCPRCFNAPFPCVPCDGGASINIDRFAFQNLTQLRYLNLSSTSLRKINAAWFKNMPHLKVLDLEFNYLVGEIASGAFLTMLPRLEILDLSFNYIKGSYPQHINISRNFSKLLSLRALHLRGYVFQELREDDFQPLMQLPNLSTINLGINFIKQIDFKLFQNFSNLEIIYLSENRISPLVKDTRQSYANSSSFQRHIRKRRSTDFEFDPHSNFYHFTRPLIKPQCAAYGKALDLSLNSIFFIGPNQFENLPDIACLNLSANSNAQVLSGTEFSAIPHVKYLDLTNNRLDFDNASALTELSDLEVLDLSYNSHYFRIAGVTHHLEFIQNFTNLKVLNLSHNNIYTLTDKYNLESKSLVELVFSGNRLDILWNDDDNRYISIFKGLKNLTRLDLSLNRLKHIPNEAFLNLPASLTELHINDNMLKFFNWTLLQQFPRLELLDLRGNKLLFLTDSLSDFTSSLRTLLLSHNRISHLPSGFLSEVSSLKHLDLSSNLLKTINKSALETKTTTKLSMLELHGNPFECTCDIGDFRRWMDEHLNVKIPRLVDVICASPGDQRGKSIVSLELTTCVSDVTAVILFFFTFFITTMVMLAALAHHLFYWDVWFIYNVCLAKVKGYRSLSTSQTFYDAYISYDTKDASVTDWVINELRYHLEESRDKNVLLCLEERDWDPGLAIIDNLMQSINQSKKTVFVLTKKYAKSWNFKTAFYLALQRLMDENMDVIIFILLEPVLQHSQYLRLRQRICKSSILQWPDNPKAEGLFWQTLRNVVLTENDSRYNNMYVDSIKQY
# [3] = biological target: T2, Toll-like receptor 7 (Homo sapiens) (UniProt Q9NYK1); experiment: Agonist activity at human TLR7 expressed in HEK293 cells after 6 hrs by NFkappaB-luciferase reporter gene assay; format: cell-based
# T2 sequence (whole entry): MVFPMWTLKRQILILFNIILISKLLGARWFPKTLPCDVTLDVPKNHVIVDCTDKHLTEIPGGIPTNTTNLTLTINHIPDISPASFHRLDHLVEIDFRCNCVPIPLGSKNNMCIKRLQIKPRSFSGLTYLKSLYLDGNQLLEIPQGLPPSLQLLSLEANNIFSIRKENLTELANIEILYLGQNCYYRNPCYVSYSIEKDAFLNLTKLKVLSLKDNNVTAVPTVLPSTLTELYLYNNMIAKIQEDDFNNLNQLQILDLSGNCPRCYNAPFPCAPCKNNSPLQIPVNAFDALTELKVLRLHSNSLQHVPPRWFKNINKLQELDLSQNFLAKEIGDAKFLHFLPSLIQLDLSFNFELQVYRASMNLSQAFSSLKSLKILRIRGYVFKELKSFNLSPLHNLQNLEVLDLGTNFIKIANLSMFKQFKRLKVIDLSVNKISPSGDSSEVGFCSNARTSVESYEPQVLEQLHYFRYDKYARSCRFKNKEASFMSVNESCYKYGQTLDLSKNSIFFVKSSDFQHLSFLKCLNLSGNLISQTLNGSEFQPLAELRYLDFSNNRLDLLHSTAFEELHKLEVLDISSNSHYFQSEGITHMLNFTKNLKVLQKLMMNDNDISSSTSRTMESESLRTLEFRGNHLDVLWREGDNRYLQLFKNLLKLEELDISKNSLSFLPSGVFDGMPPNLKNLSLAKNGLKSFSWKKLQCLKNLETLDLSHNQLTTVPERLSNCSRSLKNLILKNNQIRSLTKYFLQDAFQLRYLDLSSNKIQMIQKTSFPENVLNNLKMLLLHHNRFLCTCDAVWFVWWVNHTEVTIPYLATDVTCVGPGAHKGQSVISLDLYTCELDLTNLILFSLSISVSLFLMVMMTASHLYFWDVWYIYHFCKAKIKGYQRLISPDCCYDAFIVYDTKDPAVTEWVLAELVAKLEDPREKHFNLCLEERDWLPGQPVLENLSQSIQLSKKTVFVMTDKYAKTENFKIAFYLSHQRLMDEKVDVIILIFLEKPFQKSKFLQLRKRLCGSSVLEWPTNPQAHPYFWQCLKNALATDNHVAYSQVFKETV
# [4] = Drug metabolism in mouse liver microsomes at 1 uM after 15 mins; format: ADME, microsome; settings: read-out: Drug metabolism
# [5] = Cytotoxicity against HEK293 cells transfected with the CMV-TLR7 construct assessed as reduction in cell viability after 6 hrs by ATPlite assay; format: cell-based; settings: human
# [6] = biological target: T2, Toll-like receptor 7 (Homo sapiens); experiment: Agonist activity at TLR7 in human PBMC assessed as suppression of HCV replicon replication in human HuH7 luc/neo cells harboring RNA encoding bicistronic expression construct comprising wild type HCV type 1b NS3-NS5B regions exposed to conditioned media from compound treated PBMCs after 24 hrs by luciferase reporter gene assay; format: cell-based
# [7] = Drug metabolism in human liver microsomes at 1 uM after 15 mins; format: ADME, microsome; settings: read-out: Drug metabolism
# Homo sapiens = organism: Homo sapiens; experiment: Selectivity index, ratio of MEC for human TLR8 to MEC for human TLR7
# Voltage-gated inwardly rectifying potassium channel KCNH2, sequence (Q12809 whole entry): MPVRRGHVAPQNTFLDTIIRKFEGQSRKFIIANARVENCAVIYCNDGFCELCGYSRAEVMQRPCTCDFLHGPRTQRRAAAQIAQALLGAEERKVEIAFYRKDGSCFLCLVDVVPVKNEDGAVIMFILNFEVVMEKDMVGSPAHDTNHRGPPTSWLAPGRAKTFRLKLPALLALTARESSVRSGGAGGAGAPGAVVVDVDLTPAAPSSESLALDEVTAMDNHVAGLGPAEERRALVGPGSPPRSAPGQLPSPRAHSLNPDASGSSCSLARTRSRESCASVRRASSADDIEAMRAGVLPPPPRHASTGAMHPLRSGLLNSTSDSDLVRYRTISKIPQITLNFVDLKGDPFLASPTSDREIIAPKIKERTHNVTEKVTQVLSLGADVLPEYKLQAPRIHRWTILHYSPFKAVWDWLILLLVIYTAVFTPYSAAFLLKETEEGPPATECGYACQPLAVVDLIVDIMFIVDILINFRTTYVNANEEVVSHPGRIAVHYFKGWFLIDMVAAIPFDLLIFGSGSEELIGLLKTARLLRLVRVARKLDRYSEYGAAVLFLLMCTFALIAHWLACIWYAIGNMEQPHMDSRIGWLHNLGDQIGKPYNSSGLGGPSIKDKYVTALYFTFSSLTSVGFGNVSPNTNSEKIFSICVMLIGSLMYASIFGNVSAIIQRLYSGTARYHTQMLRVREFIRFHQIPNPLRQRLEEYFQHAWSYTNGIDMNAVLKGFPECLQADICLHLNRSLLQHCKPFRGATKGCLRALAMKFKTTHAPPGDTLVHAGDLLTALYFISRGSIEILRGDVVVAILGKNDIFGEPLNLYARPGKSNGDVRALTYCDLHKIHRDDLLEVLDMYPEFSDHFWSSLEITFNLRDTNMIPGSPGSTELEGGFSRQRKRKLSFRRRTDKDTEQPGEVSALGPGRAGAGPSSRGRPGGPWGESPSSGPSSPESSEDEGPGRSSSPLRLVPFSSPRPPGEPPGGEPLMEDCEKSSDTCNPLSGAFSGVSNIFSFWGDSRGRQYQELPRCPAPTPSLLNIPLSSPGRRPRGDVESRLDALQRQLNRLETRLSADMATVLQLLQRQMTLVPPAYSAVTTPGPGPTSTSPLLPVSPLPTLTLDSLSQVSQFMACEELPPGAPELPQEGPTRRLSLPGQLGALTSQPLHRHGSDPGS
Selectivity Index (Homo sapiens),Compound,IC50 [1] [µM],MEC [2] [µM],MEC [3] [µM],"metabolised at 0.25 h, 1 µM [4] [%]",CC50 at 6 h [5] [µM],MEC [6] [µM],"metabolised at 0.25 h, 1 µM [7] [%]"
–,CCC[C@@H](CCO)Nc1nc(N)nc2c1CN(C(=O)c1cccs1)CC2,7.6,1.1,0.2,73,> 24,0.2,22
–,CCCC[C@@H](CCO)Nc1nc(N)nc2c1CN(C(=O)c1csc(C)n1)CC2,> 50,6.6,1,71,> 24,0.2,30
–,CCCCNc1nc(N)nc2c1CN(C(=O)c1csc(C)n1)CC2,1.3,1.8,2,88,> 24,0.53,–
–,CCCC[C@@H](CCO)Nc1nc(N)nc2c1CN(C(=O)c1cccs1)CC2,6.9,1.7,0.2,90,> 24,0.2,37
5,CCCCNc1nc(N)nc2c1CCN(C(=O)c1ccccc1)C2,–,0.8,3.9,–,> 24,–,–
